Like-named read-outs stand apart in the source and are kept apart here.
Target: His-GST-PARP7 (Homo sapiens (Human), UniProt Q7Z3E1)
Assay: PARP7 biochemical assay

Sequence of His-GST-PARP7 (Q7Z3E1 whole entry): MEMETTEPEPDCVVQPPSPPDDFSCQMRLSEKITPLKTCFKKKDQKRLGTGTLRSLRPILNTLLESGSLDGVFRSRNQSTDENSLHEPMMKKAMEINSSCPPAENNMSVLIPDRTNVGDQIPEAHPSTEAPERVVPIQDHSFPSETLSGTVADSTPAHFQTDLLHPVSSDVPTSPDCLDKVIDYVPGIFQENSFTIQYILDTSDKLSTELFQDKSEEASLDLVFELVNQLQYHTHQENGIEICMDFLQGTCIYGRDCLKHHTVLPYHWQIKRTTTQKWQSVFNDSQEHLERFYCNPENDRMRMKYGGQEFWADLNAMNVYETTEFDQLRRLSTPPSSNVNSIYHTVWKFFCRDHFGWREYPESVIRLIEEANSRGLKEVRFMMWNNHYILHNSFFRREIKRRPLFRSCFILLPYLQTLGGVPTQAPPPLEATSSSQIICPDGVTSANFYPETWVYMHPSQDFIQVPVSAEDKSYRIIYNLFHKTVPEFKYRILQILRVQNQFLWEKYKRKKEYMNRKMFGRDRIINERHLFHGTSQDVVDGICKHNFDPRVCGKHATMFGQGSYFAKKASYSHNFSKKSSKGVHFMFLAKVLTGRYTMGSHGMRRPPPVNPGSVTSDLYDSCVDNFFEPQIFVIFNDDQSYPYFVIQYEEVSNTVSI

Structure (SMILES) | IC50 (read-out: PARP7 IC50) [nM] | IC50 [nM]
CC#Cc1ccc2c(=O)[nH]nc(Cc3ccc(F)c(C(=O)N4CCn5c(nnc5-c5ccccc5CC)C4)c3)c2c1 [Example 59, 4-(3-(3-(2-Ethylphenyl)-5,6,7,8-tetrahydro-[1,2,4]triazolo[4,3-a]pyrazine-7-carbonyl)-4-fluorobenzyl)-6-(prop-1-ynyl)phthalazin-1(2H)-one] | 100 to 500 | –
CC#Cc1ccc2c(=O)[nH]nc(Cc3ccc(F)c(C(=O)N4CC5CCC(C4)N5c4ccc(C#N)cn4)c3)c2c1 [Example 64, 6-(3-(2-Fluoro-5-((4-oxo-7-(prop-1-ynyl)-3,4-dihydrophthalazin-1-yl)methyl)benzoyl)-3,8-diazabicyclo[3.2.1]octan-8-yl)nicotinonitrile] | < 50 | –
CC#Cc1ccc2c(=O)[nH]nc(Cc3ccc(F)c(C(=O)N4C[C@@H]5C[C@H]4CN5c4ccc(C#N)cn4)c3)c2c1 [Example 68, 6-((1S,4S)-5-(2-fluoro-5-((4-oxo-7-(prop-1-ynyl)-3,4-dihydrophthalazin-1-yl)methyl)benzoyl)-2,5-diazabicyclo[2.2.1]heptan-2-yl)nicotinonitrile] | 500 to 2000 | –
[2H]C([2H])(c1ccc(F)c(C(=O)N2CCN(c3ccc(C#N)cn3)CC2)c1)c1n[nH]c(=O)c2ccc(C#CC)cc12 [Example 73, 6-(4-(2-Fluoro-5-((4-oxo-7-(prop-1-yn-1-yl)-3,4-dihydrophthalazin-1-yl)methyl-d2)benzoyl)piperazin-1-yl)nicotinonitrile] | < 50 | –
CC#Cc1ccc2c(=O)[nH]nc(Cc3ccc4c(c3)C(=O)N(CCN(CC)c3ccc(C#N)cn3)C4)c2c1 [Example 75, 6-(Ethyl(2-(1-oxo-6-((4-oxo-7-(prop-1-ynyl)-3,4-dihydrophthalazin-1-yl)methyl)isoindolin-2-yl)ethyl)amino)nicotinonitrile] | > 2000 | –
CC#Cc1ccc2c(=O)[nH]nc(Cc3ccc(F)c(C#N)c3)c2c1 [Example 76, 2-Fluoro-5-((4-oxo-7-(prop-1-yn-1-yl)-3,4-dihydrophthalazin-1-yl)methyl)benzonitrile] | > 2000 | –
CC#Cc1ccc2c(=O)[nH]nc(Cc3cc(C(=O)N4CCN(c5ccc(C#N)cn5)CC4)c(F)cc3F)c2c1 [Example 77, 6-(4-(2,4-Difluoro-5-((4-oxo-7-(prop-1-yn-1-yl)-3,4-dihydrophthalazin-1-yl)methyl)benzoyl)piperazin-1-yl)nicotinonitrile] | < 50 | –
CC#Cc1ccc2c(=O)[nH]nc(Cc3ccc(F)c(C(NCCN(CC)c4ccc(C#N)cn4)C(F)(F)F)c3)c2c1 (centres unmarked) [Example 78, 6-(Ethyl(2-((2,2,2-trifluoro-1-(2-fluoro-5-((4-oxo-7-(prop-1-yn-1-yl)-3,4-dihydrophthalazin-1-yl)methyl)phenyl)ethyl)amino)ethyl)amino)nicotinonitrile] | > 2000 | –
CC#Cc1ccc2c(=O)[nH]nc(Cc3ccc(F)c(C(=O)N4CCN(c5ncc(C)n5C)CC4)c3)c2c1 [Example 79, 4-(3-(4-(1,5-Dimethyl-1H-imidazol-2-yl)piperazine-1-carbonyl)-4-fluorobenzyl)-6-(prop-1-ynyl)phthalazin-1(2H)-one] | 100 to 500 | –
COc1c(Oc2ccccc2)ccc2c(=O)[nH]nc(Cc3ccc(F)c(C(=O)N4CCN(c5ccc(C#N)cn5)CC4)c3)c12 [Example 89, 6-(4-(2-Fluoro-5-((8-methoxy-4-oxo-7-phenoxy-3,4-dihydrophthalazin-1-yl)methyl)benzoyl)piperazin-1-yl)nicotinonitrile] | 50 to 100 | –
Cc1cccc(Oc2ccc3c(=O)[nH]nc(Cc4ccc(F)c(C(=O)N5CCN(c6ccc(C#N)cn6)CC5)c4)c3c2)c1 [Example 90, 6-(4-(2-fluoro-5-((4-oxo-7-(m-tolyloxy)-3,4-dihydrophthalazin-1-yl)methyl)benzoyl)piperazin-1-yl)nicotinonitrile] | < 50 | –
N#Cc1ccnc(N2CCN(C(=O)c3cc(Cc4n[nH]c(=O)c5ccc(OC6CCC6)cc45)ccc3F)CC2)c1 [Example 95, 2-(4-(5-((7-Cyclobutoxy-4-oxo-3,4-dihydrophthalazin-1-yl)methyl)-2-fluorobenzoyl)piperazin-1-yl)isonicotinonitrile] | < 50 | –
N#Cc1ccc(N2C[C@H]3CC[C@@H](C2)N3C(=O)c2cc(Cc3n[nH]c(=O)c4ccc(OC5CCC5)cc34)ccc2F)nc1 [Example 96, 6-(8-(5-((7-Cyclobutoxy-4-oxo-3,4-dihydrophthalazin-1-yl)methyl)-2-fluorobenzoyl)-3,8-diazabicyclo[3.2.1]octan-3-yl)nicotinonitrile] | < 50 | –
O=C(c1cc(Cc2n[nH]c(=O)c3ccc(OC4CCC4)cc23)ccc1F)N1[C@@H]2CC[C@H]1CN(c1ncc(C(F)(F)F)cn1)C2 [Example 97, 6-cyclobutoxy-4-(4-fluoro-3-(3-(5-(trifluoromethyl)pyrimidin-2-yl)-3,8-diazabicyclo[3.2.1]octane-8-carbonyl)benzyl)phthalazin-1(2H)-one] | < 50 | –
O=C(c1cc(Cc2n[nH]c(=O)c3ccc(OC4CCC4)cc23)ccc1F)N1C[C@H]2CC[C@@H](C1)N2c1ncc(C(F)(F)F)cn1 [Example 100, 6-Cyclobutoxy-4-(4-fluoro-3-(8-(5-(trifluoromethyl)pyrimidin-2-yl)-3,8-diazabicyclo[3.2.1]octane-3-carbonyl)benzyl)phthalazin-1(2H)-one] | < 50 | –
O=C(c1cc(Cc2n[nH]c(=O)c3ccc(OC4CCC4)cc23)ccc1F)N1CC(Nc2ncc(C(F)(F)F)cn2)C1 [Example 102, 6-Cyclobutoxy-4-(4-fluoro-3-(3-((5-(trifluoromethyl)pyrimidin-2-yl)amino)azetidine-1-carbonyl)benzyl)phthalazin-1(2H)-one] | 50 to 100 | –
O=C(c1cc(Cc2n[nH]c(=O)c3ccc(OC4CCC4)cc23)ccc1F)N1CCC2C1CCN2c1ncc(C(F)(F)F)cn1 (centres unmarked) [Example 103, 6-Cyclobutoxy-4-(4-fluoro-3-(4-(5-(trifluoromethyl)pyrimidin-2-yl)octahydropyrrolo[3,2-b]pyrrole-1-carbonyl)benzyl)phthalazin-1(2H)-one] | 50 to 100 | –
N#Cc1ccc(NC2CN(C(=O)c3cc(Cc4n[nH]c(=O)c5ccc(OC6CCC6)cc45)ccc3F)C2)nc1 [Example 104, 6-((1-(5-((7-Cyclobutoxy-4-oxo-3,4-dihydrophthalazin-1-yl)methyl)-2-fluorobenzoyl)azetidin-3-yl)amino)nicotinonitrile] | 50 to 100 | –
N#Cc1ccnc(NC2CN(C(=O)c3cc(Cc4n[nH]c(=O)c5ccc(OC6CCC6)cc45)ccc3F)C2)c1 [Example 106, 2-(1-(5-((7-Cyclobutoxy-4-oxo-3,4-dihydrophthalazin-1-yl)methyl)-2-fluorobenzoyl)azetidin-3-ylamino)isonicotinonitrile] | 100 to 500 | –
O=C(c1cc(Cc2n[nH]c(=O)c3ccc(OC4CCC4)cc23)ccc1F)N1C[C@H]2CC[C@@H](C1)N2C(=O)C1CC1 [Example 107, 6-Cyclobutoxy-4-(3-(8-(cyclopropanecarbonyl)-3,8-diazabicyclo[3.2.1]octane-3-carbonyl)-4-fluorobenzyl)phthalazin-1(2H)-one] | – | 100 to 500
CNC(=O)c1ccnc(N(C)C2CN(C(=O)c3cc(Cc4n[nH]c(=O)c5ccc(OC6CCC6)cc45)ccc3F)C2)n1 [Example 108, 2-((1-(5-((7-cyclobutoxy-4-oxo-3,4-dihydrophthalazin-1-yl)methyl)-2-fluorobenzoyl)azetidin-3-yl)(methyl)amino)-N-methylpyrimidine-4-carboxamide] | 100 to 500 | –
O=C(c1cc(Cc2n[nH]c(=O)c3ccc(OC4CCC4)cc23)ccc1F)N1CCC2C1CCN2C(=O)C1CC1 (centres unmarked) [Example 109, 6-cyclobutoxy-4-(3-(4-(cyclopropanecarbonyl)octahydropyrrolo[3,2-b]pyrrole-1-carbonyl)-4-fluorobenzyl)phthalazin-1(2H)-one] | 100 to 500 | –
Cc1cnc(N(C)C2CN(C(=O)c3cc(Cc4n[nH]c(=O)c5ccc(OC6CCC6)cc45)ccc3F)C2)n1C [Example 110, 6-Cyclobutoxy-4-(3-(3-((1,5-dimethyl-1H-imidazol-2-yl)(methyl)amino)azetidine-1-carbonyl)-4-fluorobenzyl)phthalazin-1(2H)-one] | 100 to 500 | –
N#Cc1ccc(N2CCC3C2CCN3C(=O)c2cc(Cc3n[nH]c(=O)c4ccc(OC5CCC5)cc34)ccc2F)nc1 (centres unmarked) [Example 111, 6-(4-(5-((7-Cyclobutoxy-4-oxo-3,4-dihydrophthalazin-1-yl)methyl)-2-fluorobenzoyl)hexahydropyrrolo[3,2-b]pyrrol-1(2H)-yl)nicotinonitrile] | 100 to 500 | –
O=C(C1CC1)N1C[C@H]2CC[C@@H](C1)N2C(=O)c1cc(Cc2n[nH]c(=O)c3ccc(OC4CCC4)cc23)ccc1F [Example 112, 6-Cyclobutoxy-4-(3-(3-(cyclopropanecarbonyl)-3,8-diazabicyclo[3.2.1]octane-8-carbonyl)-4-fluorobenzyl)phthalazin-1(2H)-one] | – | 100 to 500
O=C(NC1CN(C(=O)c2cc(Cc3n[nH]c(=O)c4ccc(OC5CCC5)cc34)ccc2F)C1)C1CC1 [Example 113, N-(1-(5-((7-Cyclobutoxy-4-oxo-3,4-dihydrophthalazin-1-yl)methyl)-2-fluorobenzoyl)azetidin-3-yl)cyclopropanecarboxamide] | 100 to 500 | –
CN(C(=O)CCC(F)(F)F)C1CN(C(=O)c2cc(Cc3n[nH]c(=O)c4ccc(OC5CCC5)cc34)ccc2F)C1 [Example 114, N-(1-(5-((7-cyclobutoxy-4-oxo-3,4-dihydrophthalazin-1-yl)methyl)-2-fluorobenzoyl)azetidin-3-yl)-4,4,4-trifluoro-N-methylbutanamide] | 100 to 500 | –
N#Cc1ccc(N2CC3CN(C(=O)c4cc(Cc5n[nH]c(=O)c6ccc(OC7CCC7)cc56)ccc4F)CC3C2)nc1 (centres unmarked) [Example 115, 6-(5-(5-((7-Cyclobutoxy-4-oxo-3,4-dihydrophthalazin-1-yl)methyl)-2-fluorobenzoyl)hexahydropyrrolo[3,4-c]pyrrol-2(1H)-yl)nicotinonitrile] | 100 to 500 | –
CN(c1cncc(C#N)n1)C1CN(C(=O)c2cc(Cc3n[nH]c(=O)c4ccc(OC5CCC5)cc34)ccc2F)C1 [Example 116, 6-((1-(5-((7-Cyclobutoxy-4-oxo-3,4-dihydrophthalazin-1-yl)methyl)-2-fluorobenzoyl)azetidin-3-yl)(methyl)amino)pyrazine-2-carbonitrile] | 100 to 500 | –

From patent US20260055079A1, “PHTHALAZINONE COMPOUNDS AS PARP7 INHIBITORS” (AZKARRA THERAPEUTICS, INC., priority 2022, published 2026)
